Measurements from US7341721B2 (The Board of Trustees of the University of Arkansas, priority 2002, dated 2008).

Experiments:
[1] = system: myeloma cell lines; conditions: RPMI-8226 and U266; cited from earlier work
[2] = system: myeloma cell lines; experiment: Apoptosis assay (Annexin V/PI staining, TUNEL), myeloma cell lines; format: cell-based, human; conditions: for protection from β2m-induced apoptosis / spontaneous apoptosis of myeloma cells: IL-6 20 ng/ml or IGF-I 50 ng/ml, ARK-RS and RPMI-8226; for protection from B2 anti-β2m antibody-induced apoptosis: cytokines added to myeloma cells
Procedure: (§1) The fraction of apoptotic cells was determined by staining cells with Annexin V-fluorescein isothiocyanate (FITC) (Immunotech) and propidium iodide (PI) (Sigma) (Vermes, I., et al., J. Immunol. Methods, 184:39-51, 1995). […] 5 μl of Annexin V-FITC (BD PharMingen, San Diego, Calif.) were added and incubated for 30 minutes. After washing and re-suspension of the cells in the binding buffer, 5 μl of PI were added, and the cells were ready for analysis. Percentages of apoptotic cells are the sum of PI^−/Annexin V^+ (newly apoptotic) and PI^+/Annexin V^+ (already apoptotic) cell populations (Vermes, I., et al., J. Immunol. Methods, 184:39-51, 1995).
A flow cytometry-based cell death detection kit (APO-BRDU) was purchased from BD PharMingen, and experiments were performed according to the manufacturer's protocol.

[3] = system: Jurkat cells; experiment: Apoptosis in Jurkat cells; format: cell-based; conditions: Z-VAD-FMK 100 μM; antibody 100 ng/ml, 18-hour culture
Procedure: as §1
A pan-caspase inhibitor, z-Val-Ala-Asp-fluoromethyl ketone (Z-VAD-FMK) or caspase I inhibitor V, was purchased from Calbiochem-Novabiochem. This peptide was dissolved in dimethylsulfoxide (DMSO, Sigma) and added to cell suspensions at a final concentration of 100 μM (final DMSO concentration of 0.25%).
When the pan-caspase inhibitor Z-VAD-FMK was added to the culture, activation and processing of caspase-3 (data not shown), cleavage of PARP (FIG. 5B), and apoptosis (FIG. 5C) were inhibited.

[4] = system: caspase-3 and PARP; experiment: Western blot of caspase-3 activation and PARP cleavage in myeloma cells; format: cell-based, human; conditions: Z-VAD-FMK 100 μM; ARK-RS and RPMI-8226
Procedure: Cells were cultured with or without 40 μg/ml β2m for 48 hours, harvested, washed, and lysed with lysis buffer (50 mM Tris, pH 7.5, 140 mM NaCl, 5 mM EDTA, 5 mM NaN3, 1% Triton-X-100, 1% NP-40, 1× protease inhibitor cocktail). […] The membrane was stripped and reprobed with anti-β-actin antibody (Santa Cruz Biotechnology) to ensure equivalent protein loading. For detection of caspase-3 activation and cleavage of poly(ADP-ribose) polymerase (PARP), the membranes were immunoblotted with anti-caspase-3 antibody (Santa Cruz Biotechnology) or anti-PARP antibody (BD PharMingen). Secondary antibodies conjugated to horseradish peroxidase were used for detection, followed by enhanced chemiluminescence (Bio-Rad Laboratories, Hercules, Calif.) and autoradiography.

Row | Compound | sensitivity of myeloma cell lines to melphalan [1] | protection from β2m-induced apoptosis [2] | spontaneous apoptosis of myeloma cells [2] | protection from B2 anti-β2m antibody-induced apoptosis [2] | effect on anti-Fas antibody 7C11-induced apoptosis [3] | effect on β2m-induced apoptosis ([2]; Z-VAD-FMK 100 μM, RPMI-8226, β2m 40 μg/ml, 48-hour culture) | effect on β2m-induced caspase-3 activation and PARP cleavage [4]
1 | N[C@@H](Cc1ccc(N(CCCl)CCCl)cc1)C(=O)O [melphalan] | sensitive |  |  |  |  |  | 
2 | IGF-I: recombinant human IGF-I (R&D Systems), growth and survival factor for myeloma cells |  | only IL-6 protected myeloma cells | reduced the percentage of cells undergoing spontaneous apoptosis | do not protect myeloma cells |  |  | 
3 | IL-6: recombinant human IL-6 (R&D Systems), growth and survival factor for myeloma cells |  | protected myeloma cells from β2m-induced apoptosis | reduced the percentage of cells undergoing spontaneous apoptosis | do not protect myeloma cells |  |  | 
4 | z-Val-Ala-Asp-fluoromethyl ketone [Z-VAD-FMK] |  |  |  |  | abrogated apoptosis | inhibited | inhibited
